According to article PMC10587743 (RSC Advances, 2023):
Like-named read-outs stand apart in the source and are kept apart here.

Key:
[1] = test system: HePG2 liver cancer cell line; experiment: MTT cytotoxicity assay, HePG2; assay type: cell-based; conditions: Homo sapiens, HepG2, read-out: In vitro cytotoxicity IC50, HePG2
[2] = test system: MCF-7 breast cancer cell line; experiment: MTT cytotoxicity assay, MCF-7; conditions: Homo sapiens, MCF7, read-out: In vitro cytotoxicity IC50, MCF-7
[3] = test system: HCT-116 colon cancer cell line; experiment: MTT cytotoxicity assay, HCT-116; conditions: Homo sapiens, HCT-116, read-out: In vitro cytotoxicity IC50, HCT-116
P-gp in HepG-2/ADR cells = experiment: Quantitative real-time PCR for P-glycoprotein; assay type: cell-based, human; conditions: 72 h, control HepG2 = 1
[4] = test system: HePG-2, HCT-116, and MCF-7 cell lines; experiment: MTT cytotoxicity, range over the three cell lines; assay type: cell-based; conditions: 144 h, read-out: IC50 values ranging over HePG-2, HCT-116, and MCF-7 cell lines
EGFR TK = EGFR TK (Homo sapiens, UniProt P00533); experiment: EGFR kinase inhibition assay; assay type: biochemical
Sequence of EGFR TK (P00533 25-1210): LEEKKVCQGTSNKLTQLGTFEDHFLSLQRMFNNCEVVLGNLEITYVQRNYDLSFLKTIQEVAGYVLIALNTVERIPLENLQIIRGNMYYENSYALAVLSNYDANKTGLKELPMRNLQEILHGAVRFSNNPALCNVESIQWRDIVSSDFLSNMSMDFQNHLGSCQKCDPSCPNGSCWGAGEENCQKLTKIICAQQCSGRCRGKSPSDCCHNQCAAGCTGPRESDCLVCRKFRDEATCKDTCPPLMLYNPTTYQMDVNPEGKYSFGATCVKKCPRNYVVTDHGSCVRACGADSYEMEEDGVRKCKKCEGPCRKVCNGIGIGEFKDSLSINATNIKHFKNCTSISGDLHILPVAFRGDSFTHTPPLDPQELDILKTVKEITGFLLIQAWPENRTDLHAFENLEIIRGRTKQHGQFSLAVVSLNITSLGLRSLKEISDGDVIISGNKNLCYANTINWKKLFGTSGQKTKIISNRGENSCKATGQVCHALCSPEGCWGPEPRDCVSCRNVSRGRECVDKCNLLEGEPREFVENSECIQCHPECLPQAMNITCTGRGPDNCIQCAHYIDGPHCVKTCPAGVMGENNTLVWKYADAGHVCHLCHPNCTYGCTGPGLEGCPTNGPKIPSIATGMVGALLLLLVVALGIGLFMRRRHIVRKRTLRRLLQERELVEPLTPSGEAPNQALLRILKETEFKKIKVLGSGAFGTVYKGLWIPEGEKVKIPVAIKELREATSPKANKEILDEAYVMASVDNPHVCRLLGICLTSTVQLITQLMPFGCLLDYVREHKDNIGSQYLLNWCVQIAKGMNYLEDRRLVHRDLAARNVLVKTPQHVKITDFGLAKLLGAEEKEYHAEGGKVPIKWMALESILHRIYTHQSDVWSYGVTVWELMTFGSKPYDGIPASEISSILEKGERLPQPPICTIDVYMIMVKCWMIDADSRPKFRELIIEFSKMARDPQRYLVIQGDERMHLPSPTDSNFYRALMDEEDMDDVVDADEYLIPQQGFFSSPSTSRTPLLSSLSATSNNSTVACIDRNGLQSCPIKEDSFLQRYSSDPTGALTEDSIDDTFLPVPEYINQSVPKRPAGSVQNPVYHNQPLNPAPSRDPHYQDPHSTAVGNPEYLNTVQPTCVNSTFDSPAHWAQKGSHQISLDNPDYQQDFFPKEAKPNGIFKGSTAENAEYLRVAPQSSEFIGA

CDK-2 = CDK-2 (Homo sapiens, UniProt P24941); experiment: CDK-2 kinase inhibition assay; assay type: biochemical
HCT-116 cells [5] = experiment: Cell cycle analysis by flow cytometry; assay type: cell-based; conditions: HCT-116, 6o at IC50 (5.84 μM); control 42.94%
HCT-116 cells [6] = experiment: Annexin V-FITC/PI apoptosis assay; assay type: cell-based; conditions: HCT-116, 6o at IC50
[7] = test system: breast cancer cell line (MCF-7); conditions: read-out: IC50 on breast cancer cell line (MCF-7); cited from earlier work
leukemia L1210 cells = conditions: read-out: IC50 against leukemia L1210 cells; cited from earlier work
[8] = test system: A549 lung cancer cell lines; conditions: cited from earlier work

| Compound | IC50 [1] [µM] | IC50 [2] [µM] | IC50 [3] [µM] | other results |
| --- | --- | --- | --- | --- |
| COc1cccc2c1C(=O)c1c(O)c3c(c(O)c1C2=O)C[C@@](O)(C(=O)CO)C[C@@H]3O[C@H]1C[C@H](N)[C@H](O)[C@H](C)O1 [DOX, Doxorubicin, reference compound] | 4.5 ± 0.2 | – | – | – |
| Cc1ccc(NC(=O)c2c(N3C(=O)c4ccccc4C3=O)c(C#N)c3n2CCCC3)cc1 [Compound 6l, 1-Cyano-2-(1,3-dioxoisoindolin-2-yl)-N-(p-tolyl)-5,6,7,8-tetrahydroindolizine-3-carboxamide] | 61.6 ± 3.5 | 63.2 ± 3.5 | 57.5 ± 3.1 | – |
| CC/C(=C(\c1ccccc1)c1ccc(OCCN(C)C)cc1)c1ccccc1 [Tamoxifen, reference compound] | – | – | – | P-gp RT-PCR fold change (P-gp in HepG-2/ADR cells): 0.2176 fold |
| COc1ccc(NC(=O)c2c(N3C(=O)c4ccc(F)cc4C3=O)c(C#N)c3n2CCC3)cc1 [Compound 6f, 7-Cyano-6-(5-fluoro-1,3-dioxoisoindolin-2-yl)-N-(4-methoxyphenyl)-2,3-dihydro-1H-pyrrolizine-5-carboxamide] | 88.3 ± 4.3 | > 100 | > 100 | – |
| COc1ccc(NC(=O)c2c(N3C(=O)c4ccccc4C3=O)c(C#N)c3n2CCCC3)cc1 [Compound 6p, 1-Cyano-2-(1,3-dioxoisoindolin-2-yl)-N-(4-methoxyphenyl)-5,6,7,8-tetrahydroindolizine-3-carboxamide] | 73.3 ± 3.9 | 86.9 ± 4.3 | 79.6 ± 3.7 | – |
| N#Cc1c(N2C(=O)c3ccc(F)cc3C2=O)c(C(=O)Nc2ccc(F)cc2)n2c1CCC2 [Compound 6d, 7-Cyano-6-(5-fluoro-1,3-dioxoisoindolin-2-yl)-N-(4-fluorophenyl)-2,3-dihydro-1H-pyrrolizine-5-carboxamide] | 7.97 ± 0.5 | 13.9 ± 0.9 | 9.49 ± 0.6 | IC50 [4]: 6.02 to 13.9 µM; IC50 (EGFR TK): 362 ± 8 nM; P-gp RT-PCR fold change (P-gp in HepG-2/ADR cells): 0.4097 fold |
| N#Cc1c(N2C(=O)c3ccc(F)cc3C2=O)c(C(=O)Nc2ccccc2)n2c1CCC2 [Compound 6a, 7-Cyano-6-(5-fluoro-1,3-dioxoisoindolin-2-yl)-N-phenyl-2,3-dihydro-1H-pyrrolizine-5-carboxamide] | 85.1 ± 4.1 | 93.5 ± 4.7 | > 100 | – |
| N#Cc1c(N2C(=O)c3ccccc3C2=O)c(C(=O)Nc2ccccc2)n2c1CCCC2 [Compound 6j, 1-Cyano-2-(1,3-dioxoisoindolin-2-yl)-N-phenyl-5,6,7,8-tetrahydroindolizine-3-carboxamide] | 34.1 ± 1.9 | 31.3 ± 2.3 | 22.1 ± 1.6 | – |
| N#Cc1c(N2C(=O)c3ccc(F)cc3C2=O)c(C(=O)Nc2ccccc2)n2c1CCCC2 [Compound 6k, 1-Cyano-2-(5-fluoro-1,3-dioxoisoindolin-2-yl)-N-phenyl-5,6,7,8-tetrahydroindolizine-3-carboxamide] | 78.2 ± 3.8 | 80.6 ± 4.1 | 83.7 ± 4 | – |
| N#Cc1c(N2C(=O)c3ccc(F)cc3C2=O)c(C(=O)Nc2ccc(Cl)cc2)n2c1CCC2 [Compound 6g, N-(4-Chlorophenyl)-7-cyano-6-(5-fluoro-1,3-dioxoisoindolin-2-yl)-2,3-dihydro-1H-pyrrolizine-5-carboxamide] | 52 ± 2.8 | 69.4 ± 3.7 | 60.2 ± 3.3 | – |
| COc1ccc(NC(=O)c2c(N3C(=O)c4ccc(F)cc4C3=O)c(C#N)c3n2CCCC3)cc1 [Compound 6q, 1-Cyano-2-(5-fluoro-1,3-dioxoisoindolin-2-yl)-N-(4-methoxyphenyl)-5,6,7,8-tetrahydroindolizine-3-carboxamide] | 41.2 ± 2.3 | 37.4 ± 2.6 | 32.2 ± 2.2 | – |
| N#Cc1c(N2C(=O)c3ccc(F)cc3C2=O)c(C(=O)Nc2ccc(F)cc2)n2c1CCCC2 [Compound 6o, 1-Cyano-2-(5-fluoro-1,3-dioxoisoindolin-2-yl)-N-(4-fluorophenyl)-5,6,7,8-tetrahydroindolizine-3-carboxamide] | 6.02 ± 0.3 | 8.89 ± 0.5 | 5.84 ± 0.2 | IC50 [4]: 6.02 to 13.9 µM; IC50 (CDK-2): 118 ± 16 nM; IC50 (EGFR TK): 62 ± 3 nM; Cells in G1 phase (HCT-116 cells [5]): 48.75%; P-gp RT-PCR fold change (P-gp in HepG-2/ADR cells): 0.2732 fold; Late cellular apoptosis (HCT-116 cells [6]; DMSO control 0.16%, upper right quadrant): 26.51%; Early cellular apoptosis (HCT-116 cells [6]; DMSO control 0.52%, lower right quadrant): 15.16%; Total cellular apoptosis (HCT-116 cells [6]; DMSO control 2.61%): 49.16% |
| CC1(C)Cc2c(-c3ccccc3)c(-c3ccc(Cl)cc3)c(CC(=O)O)n2C1 [licofelone] | – | – | – | IC50 [7]: 5.5 µM |
| N#Cc1c(N2C(=O)c3ccc(F)cc3C2=O)c(C(=O)Nc2ccc(Br)cc2)n2c1CCC2 [Compound 6i, N-(4-Bromophenyl)-7-cyano-6-(5-fluoro-1,3-dioxoisoindolin-2-yl)-2,3-dihydro-1H-pyrrolizine-5-carboxamide] | 20.4 ± 1.5 | 25.3 ± 2 | 14.3 ± 1.1 | – |
| N#Cc1c(N2C(=O)c3ccccc3C2=O)c(C(=O)Nc2ccc(Br)cc2)n2c1CCC2 [Compound 6h, N-(4-Bromophenyl)-7-cyano-6-(1,3-dioxoisoindolin-2-yl)-2,3-dihydro-1H-pyrrolizine-5-carboxamide] | 91.4 ± 4.8 | > 100 | > 100 | – |
| COc1ccc(NC(=O)c2c(N3C(=O)c4ccccc4C3=O)c(C#N)c3n2CCC3)cc1 [Compound 6e, 7-Cyano-6-(1,3-dioxoisoindolin-2-yl)-N-(4-methoxyphenyl)-2,3-dihydro-1H-pyrrolizine-5-carboxamide] | 45.4 ± 2.5 | 42.7 ± 2.5 | 38.1 ± 2.4 | – |
| COc1ccc(-c2csc3c2-n2cccc2C3=O)cc1O [MR22388] | – | – | – | IC50 (leukemia L1210 cells): 15 nM |
| Cc1ccc(NC(=O)c2c(N3C(=O)c4ccc(F)cc4C3=O)c(C#N)c3n2CCCC3)cc1 [Compound 6m, 1-Cyano-2-(5-fluoro-1,3-dioxoisoindolin-2-yl)-N-(p-tolyl)-5,6,7,8-tetrahydroindolizine-3-carboxamide] | 12 ± 0.8 | 19.9 ± 1.4 | 28.4 ± 1.9 | IC50 (CDK-2): 402 ± 86 nM; IC50 (EGFR TK): 130 ± 11 nM; P-gp RT-PCR fold change (P-gp in HepG-2/ADR cells): 0.6754 fold |
| O=c1[nH]cc(F)c(=O)[nH]1 [5-fluorouracil] | – | – | – | IC50 ([8]; read-out: IC50 against A549 lung cancer cell lines): < 5 µM |
| N#Cc1c(N2C(=O)c3ccccc3C2=O)c(C(=O)Nc2ccc(F)cc2)n2c1CCC2 [Compound 6c, 7-Cyano-6-(1,3-dioxoisoindolin-2-yl)-N-(4-fluorophenyl)-2,3-dihydro-1H-pyrrolizine-5-carboxamide] | 49.1 ± 2.9 | 54.6 ± 3.1 | 47.9 ± 2.6 | – |
| N#Cc1c(N2C(=O)c3ccccc3C2=O)c(C(=O)Nc2ccc(F)cc2)n2c1CCCC2 [Compound 6n, 1-Cyano-2-(1,3-dioxoisoindolin-2-yl)-N-(4-fluorophenyl)-5,6,7,8-tetrahydroindolizine-3-carboxamide] | 65.4 ± 3.7 | 75.8 ± 3.9 | 71.3 ± 3.5 | – |
| Cc1ccc(NC(=O)c2c(N3C(=O)c4ccc(F)cc4C3=O)c(C#N)c3n2CCC3)cc1 [Compound 6b, 7-Cyano-6-(5-fluoro-1,3-dioxoisoindolin-2-yl)-N-(p-tolyl)-2,3-dihydro-1H-pyrrolizine-5-carboxamide] | 55.4 ± 3.2 | 58.1 ± 3.3 | 66.3 ± 3.1 | – |
| O=C(c1ccccc1)c1ccc2n1CCC2C(=O)O (centres unmarked) [Ketorolac] | – | – | – | IC50 ([8]; read-out: IC50 against lung cancer cell lines A549): ~13 µM |
